# Measured values: article PMC10600881 (ACS Omega, 2023)
# Like-named read-outs stand apart in the source and are kept apart here.
# How the values were obtained:
# B. subtilis (ATCC 9372) = test: Broth microdilution assay, MIC; format: cell-based; details: Bacillus subtilis, ATCC9372, read-out: Minimum Inhibitory Concentration
# E. coli (ATCC25922) = test: Broth microdilution assay, MIC; format: cell-based; details: Escherichia coli, ATCC25922, read-out: Minimum Inhibitory Concentration
# [1] = test system: M. tuberculosis (RCMB 010126); test: Microplate alamar blue assay; format: cell-based, Mycobacterium tuberculosis; details: Mycobacterium tuberculosis, RCMB010126, sensitive Mycobacterium tuberculosis (RCMB 010126), MABA
# C. albicans (ATCC 10231) = test: Broth microdilution assay, antifungal MIC/MFC; format: cell-based, Candida albicans; details: for ratio (MFC/MIC): C. albicans (ATCC 10231); for MFC / MIC: Candida albicans; for fungicidal or fungistatic behavior: C. albicans, MFC/MIC > 4 = fungistatic
# [2] = test system: P. aeruginosa (ATCC 29853); test: Broth microdilution assay, MIC/MBC; format: cell-based; details: for MBC / MIC: Pseudomonas aeruginosa; for fold more efficient than amoxicillin / bactericidal or bacteriostatic effect: P. aeruginosa; for fold more efficient than amoxicillin: from MICs; for bactericidal or bacteriostatic effect: MBC/MIC ≤ 4 = bactericidal
# S. aureus (ATCC 25923) = test: Broth microdilution assay, MIC; format: cell-based; details: Staphylococcus aureus, ATCC25923, read-out: Minimum Inhibitory Concentration
# [3] = ATCC10231, read-out: Minimum Inhibitory Concentration
# [4] = ATCC29853, read-out: Minimum Inhibitory Concentration
Compound,MIC (B. subtilis (ATCC 9372)) [µg/mL],MIC (E. coli (ATCC25922)) [µg/mL],MIC [1] [µg/mL],ratio (MFC/MIC) (C. albicans (ATCC 10231)),MFC (C. albicans (ATCC 10231); ATCC10231) [µg/mL],MIC (C. albicans (ATCC 10231); ATCC10231) [µg/mL],MIC (C. albicans (ATCC 10231); [3]) [µg/mL],ratio (MBC/MIC) ([2]; P. aeruginosa (ATCC 29853)),MBC ([2]; ATCC29853) [µg/mL],MIC ([2]; ATCC29853) [µg/mL],"MIC [2, 4] [µg/mL]",MIC (S. aureus (ATCC 25923)) [µg/mL],fungicidal or fungistatic behavior (C. albicans (ATCC 10231)),fold more efficient than amoxicillin [2],bactericidal or bacteriostatic effect [2],"Minimum Inhibitory Concentration ([2]; P. aeruginosa (ATCC 29853), Gram-negative, Table 1) [µg/mL]"
"COc1ccc(OC)c(C2CC(c3cccs3)=NN2C(N)=S)c1 (stereo not shown) [2b, 4,5-Dihydro-5-(2,5-dimethoxyphenyl)-3-(thiophen-2-yl)pyrazole-1-carbothioamide]",125,62.5,15.6,4,250,62.5,62.5,8,500,62.2,62.2,250,–,–,–,–
"Cc1csc(N2N=C(c3cccs3)CC2c2cccs2)n1 (stereo not shown) [3a, 4,5-Dihydro-1-(4-methylthiazol-2-yl)-3,5-di(thiophen-2-yl)-1H-pyrazole]",62.5,500,62.5,>4,> 500,125,125,>1,> 500,> 500,> 500,250,fungistatic,–,–,–
"COc1ccc(OC)c(C2CC(c3cccs3)=NN2c2nc(C)cs2)c1 (stereo not shown) [3b, 4,5-Dihydro-5-(2,5-dimethoxyphenyl)-1-(4-methylthiazol-2-yl)-3-(thiophen-2-yl)-1H-pyrazole]",125,125,7.81,8,250,31.2,31.2,8,125,15.6,15.6,250,fungistatic,approximately 32 fold,–,–
"c1ccc(-c2csc(N3N=C(c4cccs4)CC3c3cccs3)n2)cc1 (stereo not shown) [4a, 4,5-Dihydro-1-(4-phenylthiazol-2-yl)-3,5-di(thiophen-2-yl)-1H-pyrazole]",15.6,125,62.5,4,500,125,125,4,500,125,125,250,–,–,bactericidal,–
"COc1ccc(OC)c(C2CC(c3cccs3)=NN2c2nc(-c3ccccc3)cs2)c1 (stereo not shown) [4b, 4,5-Dihydro-5-(2,5-dimethoxyphenyl)-1-(4-phenylthiazol-2-yl)-3-(thiophen-2-yl)-1H-pyrazole]",250,125,31.2,8,500,62.5,62.5,16,250,15.6,15.6,250,fungistatic,approximately 32 fold,–,–
"CCOC(=O)c1sc(N2N=C(c3cccs3)CC2c2cccs2)nc1C (stereo not shown) [5a, Ethyl 2-(4,5-dihydro-3,5-di(thiophen-2-yl)pyrazol-1-yl)-4-methylthiazole-5-carboxylate]",3.9,> 500,31.2,4,500,125,125,>1,> 500,> 500,> 500,62.5,–,–,–,–
"CCOC(=O)c1sc(N2N=C(c3cccs3)CC2c2cc(OC)ccc2OC)nc1C (stereo not shown) [5b, Ethyl 2-(4,5-dihydro-5-(2,5-dimethoxyphenyl)-3-(thiophen-2-yl)pyrazol-1-yl)-4-methylthiazole-5-carboxylate]",125,125,31.2,2,125,62.5,62.5,2,62.2,31.2,31.2,62.5,–,~16 fold,bactericidal,–
"O=C1CSC(N2N=C(c3cccs3)CC2c2cccs2)=N1 (stereo not shown) [6a, 2-(4,5-Dihydro-3,5-di(thiophen-2-yl)pyrazol-1-yl)thiazol-4(5H)-one]",125,125,31.2,4,250,62.5,62.5,4,250,62.5,62.5,250,–,–,bactericidal,–
"CC1SC(N2N=C(c3cccs3)CC2c2cccs2)=NC1=O (stereo not shown) [7a, 2-(4,5-Dihydro-3,5-di(thiophen-2-yl)pyrazol-1-yl)-5-methylthiazol-4(5H)-one]",125,125,62.5,4,250,62.5,62.5,>1,> 500,> 500,> 500,> 500,–,–,–,–
"COc1ccc(OC)c(C2CC(c3cccs3)=NN2C2=NC(=O)C(C)S2)c1 (stereo not shown) [7b, 2-(4,5-Dihydro-5-(2,5-dimethoxyphenyl)-3-(thiophen-2-yl)pyrazol-1-yl)-5-methylthiazol-4(5H)-one]",125,125,62.5,8,500,62.5,62.5,2,250,125,125,250,fungistatic,–,bactericidal,–
"COc1ccc(C=C2SC(N3N=C(c4cccs4)CC3c3cccs3)=NC2=O)cc1 (stereo not shown) [8a, 5-(4-Methoxybenzylidene)-2-(4,5-dihydro-3,5-di(thiophen-2-yl)pyrazol-1-yl)thiazol-4(5H)-one]",125,125,31.2,2,125,62.5,62.5,8,250,31.2,31.2,250,–,~16 fold,–,–
"COc1ccc(OC)c(C=C2SC(N3N=C(c4cccs4)CC3c3cccs3)=NC2=O)c1 (stereo not shown) [8c, 5-(2,5-Dimethoxybenzylidene)-2-(4,5-dihydro-3,5-di(thiophen-2-yl)pyrazol-1-yl)thiazol-4(5H)-one]",125,125,7.81,2,62.2,31.2,31.2,8,250,31.2,31.2,62.5,–,~16 fold,–,–
"COc1ccc(OC)c(C=C2SC(N3N=C(c4cccs4)CC3c3cc(OC)ccc3OC)=NC2=O)c1 (stereo not shown) [8d, 5-(2,5-Dimethoxybenzylidene)-2-(4,5-dihydro-5-(2,5-dimethoxyphenyl)-3-(thiophen-2-yl)pyrazol-1-yl)thiazol-4(5H)-one]",125,125,31.2,2,125,62.5,62.5,2,125,62.2,62.2,62.5,–,–,bactericidal,–
"O=C1N=C(N2N=C(c3cccs3)CC2c2cccs2)SC1=C1C(=O)Nc2ccccc21 (stereo not shown) [9a, 3-(2-(4,5-Dihydro-3,5-di(thiophen-2-yl)pyrazol-1-yl)-4-oxothiazol-5(4H)-ylidene)indolin-2-one]",125,125,15.6,2,250,125,125,2,62.2,31.2,31.2,62.5,–,~16 fold,bactericidal,–
"O=C1CCSC(N2N=C(c3cccs3)CC2c2cccs2)=N1 (stereo not shown) [10a, 5,6-Dihydro-2-(4,5-dihydro-3,5-di(thiophen-2-yl)pyrazol-1-yl)-1,3-thiazin-4-one]",62.5,125,31.2,4,250,62.5,62.5,4,125,31.2,31.2,125,–,~16 fold,bactericidal,–
"CC1(C)S[C@@H]2[C@H](NC(=O)[C@H](N)c3ccc(O)cc3)C(=O)N2[C@H]1C(=O)O [amoxicillin, reference compound]",31.2,62.5,–,–,–,–,–,>1,> 500,> 500,> 500,7.8,–,–,–,>500
"OC(Cn1cncn1)(Cn1cncn1)c1ccc(F)cc1F [fluconazole, reference compound]",–,–,–,1,250,250,250,–,–,–,–,–,–,–,–,–
"NNC(=O)c1ccncc1 [isoniazid, reference compound]",–,–,0.12,–,–,–,–,–,–,–,–,–,–,–,–,–
